The values below come from the METLIN SMRT retention time set (Domingo-Almenara et al. 2019).

The nature of the data set: gradient 5% acetonitrile 3 min, to 50% in 2 min, to 85% in 15 min, held 3 min, 100 µL/min. Particulars: column: Zorbax Extend-C18 2.1 x 50 mm; eluents: water / acetonitrile, 0.1% formic acid. The procedure, abridged: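 Each retention time is based on an adduct peak selected computationally and verified by manual inspection. Measurements used HPLC–quadrupole time-of-flight mass spectrometry in positive and negative ionization mode on mixtures of ~100 pure standards. Chromatography ran on a Zorbax Extend-C18 column (2.1 × 50 mm, 1.8 μm) at 100 μL/min with water and acetonitrile, each containing 0.1% formic acid, and dead and dwell volumes of 40 μL and 900 μL.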
With `CCN1CCN(c2cc(C)c3cc(NC(=O)Cc4cccs4)ccc3n2)CC1`, the RP-LC retention time was found to be 578 s. The figure for `COCc1c(C(=O)O)nnn1-c1ccc2c(c1)CCC2` is 777 s; for `CC(C)c1noc(C2(NC(=O)c3cnccn3)CCCCC2)n1` it is 894 s.

`Cc1nc2nc(-c3ccco3)nn2c(N2CCN(c3ccccn3)CC2)c1C` had an RP-LC retention time of 596 s. For the compound `CC12CC(NC(=O)N1c1ccc(C(=O)N3CCN(c4ccccn4)CC3)cc1)c1ccccc1O2` (centres undefined), the RP-LC retention time stood at 599 s.

`CCOC(=O)N1CCN(C(=O)CSc2ccc(C)cc2)CC1` displayed an RP-LC retention time of 765 s. Take `CCCNC(=O)N1CCN(Cc2nc3cccnc3n2-c2ccc(F)cc2)CC1`: the RP-LC retention time stood at 604 s. Compound `Cc1ccc(Cl)cc1N(C)C(=O)Cn1cnc2nc3c(cc2c1=O)CCCC3` showed an RP-LC retention time of 809 s. To `CSc1cccc(NC(=O)CCCn2nc(-n3cccc3)c3c(C)cc(C)nc32)c1` belongs 1040 s. `Cc1csc(-c2cc(S(=O)(=O)Nc3ccc(Cl)cc3C)c(C)s2)n1` showed an RP-LC retention time of 1140 s. The figure for `Cc1ccccc1Cn1c(CNC(=O)Cc2ccccc2)nc2ccccc21` is 645 s. The figure for `Cc1ccc(Cn2c(=O)n(CCNC(=O)c3cccs3)c3ncccc32)cc1` is 808 s. To `O=C(NCCc1ccc(Cl)cc1)C1CCN(C(=O)c2cccn2-c2cccnc2)CC1` belongs 727 s; to `O=C(O)CSc1nnc(Br)n1-c1ccc(C2CC2)c2ccccc12`, 949 s. In turn, `O=C(CCCc1nnc2c(=O)n(-c3cccc(F)c3)ccn12)NCCc1c[nH]c2ccccc12` yielded an RP-LC retention time of 707 s. To `CC1CCN(c2ccc(-c3cccc(NC(=O)NCc4ccccc4)c3)nn2)CC1` belongs 747 s.

The compound `COC(=O)c1ncn2c1C(=O)N(Cc1ccc(Cl)cc1)C(C)(C(=O)NCc1ccccc1)C2` (centres undefined) yielded an RP-LC retention time of 755 s.

Turning to `COc1ccc(C2CCCN2C(=O)c2c(Br)cnn2C)cc1` (centres undefined), the RP-LC retention time was 841 s. To `Cc1scc2nc(C(=O)Nc3cccc(F)c3)nc(N3CCCC3)c12` belongs 567 s; to `CC(CCc1ccco1)NC(=O)C1CCN(c2nc(-c3ccc(Cl)cc3)no2)CC1` (centres undefined), 1080 s.

The compound `CCC(C)C(=O)NCCc1c[nH]c2cc(OC)ccc12` (centres undefined) showed an RP-LC retention time of 728 s. To `Cn1nc(C2CCN(S(=O)(=O)Cc3cccc(Cl)c3)CC2)n(C2CCCC2)c1=O` belongs 888 s; to `CC(C)CC(NC(=O)c1ccc2c(c1)OCO2)C(=O)Nc1nc2ccccc2[nH]1` (centres undefined), 710 s; to `O=C(Nc1cccc(F)c1)N1CC(Oc2ccc(-c3nc(-c4ccccc4)no3)cc2)C1`, 1200 s. The figure for `CCn1cc(C(=O)Nc2ccc(C)cc2)c(S(=O)(=O)N2CCSCC2)n1` is 887 s. `CCOC(=O)C1CCN(S(=O)(=O)c2cccc3nsnc23)CC1` returned an RP-LC retention time of 810 s. To `Cc1ccc(C)c(NC(=O)C2CCC(=O)N2S(=O)(=O)c2ccc(C)c(C)c2)c1` (centres undefined) belongs 962 s; to `COc1ccccc1N1CCN(c2ncc(S(=O)(=O)c3ccc(C)cc3)c(N)n2)CC1`, 955 s; to `CCN(CC)c1ccc(Nc2nc(-c3ccc(OC)cc3)cs2)cc1`, 742 s. `C[C@@]1(O)CCN(Cc2cccc(F)c2F)C[C@H]1N1CCCC1` gave an RP-LC retention time of 563 s.

Compound `CC(C(=O)N1CCN(c2ccccn2)CC1)n1nc(-c2ccccc2)c2cc(Cl)ccc21` (centres undefined) yielded an RP-LC retention time of 835 s. The figure for `CCCC(=O)Nc1ccc2c(c1)CN(C(=O)c1ccc(F)c(Cl)c1)C(C(=O)N(C)C)C2` (centres undefined) is 727 s; for `CC(C)Cn1c(=O)c(-c2ccc(C(=O)NCc3ccncc3)cc2)nc2ccccc21` it is 681 s; for `COc1ccc2c(c1)C1CC(C)(O2)N(C)C(=O)C1S(=O)(=O)c1ccccc1` (centres undefined) it is 916 s.

In the case of `CCCn1cc(C(=O)NCc2ccccc2F)c(S(=O)(=O)N2CCC(C)CC2)n1`, the RP-LC retention time turned out to be 1090 s. To `COc1ccc(-c2noc(C3CC(=O)N(c4cc(C)ccc4C)C3)n2)cc1` (centres undefined) belongs 988 s; to `CC(=O)N1CCc2[nH]c3ccc(C(=O)Nc4ccc(N5CCOCC5)cc4)cc3c2C1`, 654 s; to `CCN(CC)C(=O)c1ccc2c(c1)N(CC(=O)NCc1ccco1)C(=O)CO2`, 652 s.

The compound `CCOc1ccc(Nc2c(C(=O)N3CCSCC3)cnc3nc(C)ccc23)cc1` returned an RP-LC retention time of 642 s. `CC(C)c1nc2c(NC(=O)C3CC3)cccn2n1` came in with an RP-LC retention time of 733 s. The figure for `Clc1ccc(Cc2nc(-c3cccc(-c4ccn[nH]4)c3)no2)cc1` is 1010 s. For the compound `O=C(CN1C(=O)CCS(=O)(=O)c2ccccc21)Nc1ccc(C(F)(F)F)cc1`, the RP-LC retention time turned out to be 843 s. The figure for `COc1ccc(-n2c(=O)n(C)c(=O)c3cc(C(=O)Nc4ccc(C)cc4F)cnc32)cc1` is 849 s; for `Cc1ccc(Nc2c(-c3ccc(N(C)C)cc3)nc3ncccn23)c(C)c1` it is 782 s. To `Cc1cc(NC(=O)CSc2nnc(NC(=O)c3ccc4c(c3)OCO4)s2)no1` belongs 727 s; to `COC(=O)CCc1sc(Nc2ccccn2)nc1-c1ccc(OC)cc1`, 810 s. For `CCN1C(=O)NC(c2ccc(C)cc2C)C2=C1CN(CCC(=O)N1CCCC1)C2=O` (centres undefined), the RP-LC retention time came out at 623 s.

On to `CC1CCN(C(=O)Cn2c(=O)n(-c3ccc(F)cc3)c3ncccc32)CC1`, for which the RP-LC retention time was 834 s.

`Cc1cc(=O)n(CC(=O)Nc2ccccc2F)c(N2CCOCC2)n1`: the RP-LC retention time amounted to 643 s. `COc1cccc(NC(=O)C2c3cc(OC)c(OC)cc3C(=O)N3CCc4ccccc4C23)c1` (centres undefined) showed an RP-LC retention time of 809 s.

For the compound `O=C(C1CC(=O)N(c2ccc3c(c2)CCN3C(=O)C2CCC2)C1)N1CCCCC1` (centres undefined), the RP-LC retention time was found to be 760 s. As to `Cc1cc(Cl)ccc1N1C(=O)CN(S(C)(=O)=O)CC1(C)C(=O)NCc1ccccc1` (centres undefined), the RP-LC retention time worked out at 863 s.

Turning to `CCn1ncc2ccc(C(=O)NC(C)C)cc21`, the RP-LC retention time worked out at 702 s. To `O=C(Nc1ccccc1F)N1CC(Oc2cccc(-c3nc(-c4ccccc4)no3)c2)C1` belongs 1140 s. To `O=C(c1cccc(Cl)c1)N1CCC(n2c(-c3ccco3)nc3cccnc32)C1` (centres undefined) belongs 776 s; to `CCCc1noc(-c2ccc3nnc(CC(=O)Nc4cc(C)cc(C)c4)n3c2)n1`, 947 s. To `Cn1nnnc1C1CCCN(C(=O)C2CC2)C1` (centres undefined) belongs 605 s; to `COc1ccc(-c2nnc(COc3cccc(NC(=O)CNC(=O)Cc4ccccc4)c3)o2)cc1`, 816 s. On to `O=C(c1cn2cc(Cl)ccc2n1)N1CCN(c2ccccc2)CC1`, for which the RP-LC retention time turned out to be 804 s.
